Reference: patent US20260060987A1, “METHODS AND COMPOSITIONS FOR RADIOPROTECTION AND MITIGATION OF RADIATION-INDUCED INJURY USING KINASE INHIBITORS” (Incyte Corporation, priority 2024, published 2026)

Biological target: PI3Kδ (Homo sapiens, UniProt O00329)
Assay: PI3Kδ inhibition, IC50 at 1 mM ATP
Format: biochemical

Chain of PI3Kδ (O00329 whole entry): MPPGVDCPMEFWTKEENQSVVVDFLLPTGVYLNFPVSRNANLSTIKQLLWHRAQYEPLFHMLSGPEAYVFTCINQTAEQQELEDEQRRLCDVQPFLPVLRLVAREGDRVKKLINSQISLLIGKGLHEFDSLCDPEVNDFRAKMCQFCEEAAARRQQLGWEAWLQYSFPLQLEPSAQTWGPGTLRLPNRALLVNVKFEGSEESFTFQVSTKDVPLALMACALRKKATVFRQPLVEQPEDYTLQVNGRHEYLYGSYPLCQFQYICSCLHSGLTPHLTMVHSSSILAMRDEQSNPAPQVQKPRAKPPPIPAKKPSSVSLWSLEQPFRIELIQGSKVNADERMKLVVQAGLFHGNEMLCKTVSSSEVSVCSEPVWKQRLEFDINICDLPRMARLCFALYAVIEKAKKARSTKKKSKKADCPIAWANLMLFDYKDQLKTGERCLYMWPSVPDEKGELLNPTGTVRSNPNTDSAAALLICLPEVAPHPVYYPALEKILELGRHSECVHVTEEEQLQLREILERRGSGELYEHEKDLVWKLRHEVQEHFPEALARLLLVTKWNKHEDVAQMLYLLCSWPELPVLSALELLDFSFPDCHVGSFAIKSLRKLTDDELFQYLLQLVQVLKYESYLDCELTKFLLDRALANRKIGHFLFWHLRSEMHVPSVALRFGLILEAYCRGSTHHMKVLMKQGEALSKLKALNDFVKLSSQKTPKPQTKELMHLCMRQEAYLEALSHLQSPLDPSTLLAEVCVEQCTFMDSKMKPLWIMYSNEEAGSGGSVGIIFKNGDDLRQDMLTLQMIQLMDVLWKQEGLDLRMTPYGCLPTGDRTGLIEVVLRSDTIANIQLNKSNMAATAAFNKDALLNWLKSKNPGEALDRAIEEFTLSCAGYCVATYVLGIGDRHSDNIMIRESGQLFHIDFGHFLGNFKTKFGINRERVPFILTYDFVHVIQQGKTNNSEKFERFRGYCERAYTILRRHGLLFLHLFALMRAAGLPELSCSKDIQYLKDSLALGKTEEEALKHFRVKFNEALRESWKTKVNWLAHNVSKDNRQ
Chain of PI3Kδ (P27986 whole entry partner): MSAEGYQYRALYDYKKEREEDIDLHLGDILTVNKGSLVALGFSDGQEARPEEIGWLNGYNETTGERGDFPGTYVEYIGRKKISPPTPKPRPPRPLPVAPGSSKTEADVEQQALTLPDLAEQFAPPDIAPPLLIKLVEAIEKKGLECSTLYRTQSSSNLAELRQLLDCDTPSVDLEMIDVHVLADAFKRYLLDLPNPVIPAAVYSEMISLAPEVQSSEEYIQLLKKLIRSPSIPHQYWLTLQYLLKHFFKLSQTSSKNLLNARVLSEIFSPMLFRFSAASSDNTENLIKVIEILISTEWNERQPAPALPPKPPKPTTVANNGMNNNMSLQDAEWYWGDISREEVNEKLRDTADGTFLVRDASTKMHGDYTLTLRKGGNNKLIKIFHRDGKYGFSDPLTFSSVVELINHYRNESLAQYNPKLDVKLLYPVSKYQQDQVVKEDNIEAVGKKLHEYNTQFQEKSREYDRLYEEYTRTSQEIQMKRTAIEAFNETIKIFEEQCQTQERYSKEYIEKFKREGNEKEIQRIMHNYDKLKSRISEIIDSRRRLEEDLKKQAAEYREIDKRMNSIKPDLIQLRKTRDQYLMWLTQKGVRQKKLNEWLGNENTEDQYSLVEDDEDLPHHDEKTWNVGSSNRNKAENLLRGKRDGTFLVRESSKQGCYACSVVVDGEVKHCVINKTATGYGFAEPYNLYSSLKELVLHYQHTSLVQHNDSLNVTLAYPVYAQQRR

- IC50: 1 nM
Structure (SMILES): CCOc1c([C@H](C)n2nc(C)c3c(N)ncnc32)cc(Cl)c(F)c1[C@@H]1CNC(=O)C1 [parsaclisib, (R)-4-(3-((S)-1-(4-amino-3-methyl-1H-pyrazolo[3,4-d]pyrimidin-1-yl)ethyl)-5-chloro-2-ethoxy-6-fluorophenyl) pyrrolidin-2-one]
